Laboratory results taken from US20080194585A1, “Fungicidal Pyrazine Derivatives” (priority 2005, published 2008).
Marks after values point to notes of the source that are not given here.

What was measured:
Plasmopara viticola = experiment: Test D: grape downy mildew, spray after inoculation of grape seedlings; assay type: in vivo
Description: Upon removal, disease ratings were made. […] A dash (-) indicates no test results.

[1] = test system: Erysiphe graminis f. sp. tritici; experiment: Test L: wheat powdery mildew, preventive spray on wheat seedlings
[2] = test system: Puccinia recondita f. sp. tritici; experiment: Test K: wheat leaf rust, preventive spray on wheat seedlings
Septoria tritici = experiment: Test J: wheat leaf blotch, preventive spray on wheat seedlings; assay type: in vivo
Description: A dash (-) indicates no test results.

Phytophthora infestans = experiment: whole plant or invertebrate; assay type: in vivo
[3] = test system: Colletotrichum orbiculare; experiment: Test B: cucumber Colletotrichum anthracnose, preventive spray on cucumber seedlings
Pythium aphanidermatum = experiment: Test A: bluegrass pythium blight, preventive spray on bluegrass seedlings
fusarium graminearium = experiment: Test I: wheat head scab, preventive spray on wheat seedlings
Description: (the causal agent of wheat head scab) and incubated in a saturated atmosphere at 20° C. for 72 h, and then moved to a growth chamber at 22° C. for 5 days, after which disease ratings were made.

Botrytis cinerea = experiment: Test E: tomato botrytis, preventive spray on tomato seedlings
Rhizoctonia oryzae = experiment: Test G: turf brown patch, preventive spray on creeping bent grass seedlings
Description: (the causal agent of turf brown patch) and incubated in a saturated atmosphere at 27° C. for 24 h, and then moved to a growth chamber at 27° C. for 5 days, after which disease ratings were made.

Septoria nodorum = experiment: Test H: wheat glum blotch, preventive spray on wheat seedlings
Description: (the causal agent of wheat glum blotch) and incubated in a saturated atmosphere at 20° C. for 48 h, and then moved to a growth chamber at 22° C. for 5 days, after which disease ratings were made.

[4] = 40 ppm (marked *), 100 = 100% disease control, 0 = no control
[5] = 200 ppm, 100 = 100% disease control, 0 = no control

Structure (SMILES)	Test D disease control rating (Plasmopara viticola; 40 ppm (*))	Test L disease control rating ([1]; 40 ppm (*))	Test K disease control rating ([2]; 40 ppm (*))	Test J disease control rating (Septoria tritici; 40 ppm (*))	Test F disease control rating (Phytophthora infestans; 40 ppm (*))	Test B disease control rating ([3]; 40 ppm (*))	Test A disease control rating (Pythium aphanidermatum; 40 ppm (*))	Test I disease control rating (fusarium graminearium; 40 ppm (*))	Test E disease control rating (Botrytis cinerea; 40 ppm (*))	Test G disease control rating (Rhizoctonia oryzae; 40 ppm (*))	Test H disease control rating (Septoria nodorum; 40 ppm (*))	Test D disease control rating (Plasmopara viticola; [4])	Test L disease control rating [1, 4]	Test K disease control rating [2, 4]	Test J disease control rating (Septoria tritici; [4])	Test F disease control rating (Phytophthora infestans; [4])	Test B disease control rating [3, 4]	Test A disease control rating (Pythium aphanidermatum; [4])	Test I disease control rating (fusarium graminearium; [4])	Test E disease control rating (Botrytis cinerea; [4])	other results
CC(C)Cn1c(-c2c(F)cccc2F)c(Cl)nc(-c2cnc3ccccn23)c1=O [compound 190]	–	–	–	–	–	–	–	–	–	–	–	–	–	–	–	–	–	–	–	–	Test D disease control rating (Plasmopara viticola; 200 ppm): 0%; Test L disease control rating ([1]; 200 ppm): 0%; Test K disease control rating ([2]; 200 ppm): 0%; Test J disease control rating (Septoria tritici; 200 ppm): 0%; Test F disease control rating (Phytophthora infestans; 200 ppm): 0%; Test B disease control rating ([3]; 200 ppm): 0%; Test A disease control rating (Pythium aphanidermatum; 200 ppm): 0%; Test I disease control rating (fusarium graminearium; 200 ppm): 0%; Test E disease control rating (Botrytis cinerea; 200 ppm): 0%; Test G disease control rating (Rhizoctonia oryzae; 200 ppm): 0%; Test H disease control rating (Septoria nodorum; 200 ppm): 0%
CCC(C)Cn1c(-c2c(F)cccc2F)c(Cl)nc(-n2nccn2)c1=O (stereo not shown) [compound 191]	–	–	–	–	–	–	–	–	–	–	–	–	–	–	–	–	–	–	–	–	Test D disease control rating (Plasmopara viticola; 200 ppm): 0%; Test L disease control rating ([1]; 200 ppm): 0%; Test K disease control rating ([2]; 200 ppm): 86%; Test J disease control rating (Septoria tritici; 200 ppm): 36%; Test F disease control rating (Phytophthora infestans; 200 ppm): 0%; Test B disease control rating ([3]; 200 ppm): 0%; Test A disease control rating (Pythium aphanidermatum; 200 ppm): 0%; Test I disease control rating (fusarium graminearium; 200 ppm): 0%; Test E disease control rating (Botrytis cinerea; 200 ppm): 97%; Test G disease control rating (Rhizoctonia oryzae; 200 ppm): 0%; Test H disease control rating (Septoria nodorum; 200 ppm): 0%
CC(C)Cn1c(-c2ccccc2Cl)c(Cl)nc(-n2cncn2)c1=O [compound 192]	0* %	0* %	89* %	98* %	0* %	0* %	0* %	0* %	99* %	31* %	0* %	–	–	–	–	–	–	–	–	–	–
CC(C)Cn1c(-c2ccccc2Cl)c(Cl)nc(-n2cccn2)c1=O [compound 193]	17* %	68* %	100* %	99* %	0* %	29* %	0* %	0* %	100* %	33* %	89* %	–	–	–	–	–	–	–	–	–	–
CC(C)Cn1c(-c2ccccc2Br)c(Cl)nc(-n2cncn2)c1=O [compound 194]	0* %	0* %	92* %	88* %	0* %	0* %	0* %	0* %	95* %	0* %	0* %	–	–	–	–	–	–	–	–	–	–
CC(C)Cn1c(-c2ccccc2Br)c(Cl)nc(-n2cccn2)c1=O [compound 195]	0* %	0* %	100* %	100* %	0* %	26* %	0* %	0* %	99* %	47* %	87* %	–	–	–	–	–	–	–	–	–	–
CCc1ccccc1-c1c(Cl)nc(-n2cncn2)c(=O)n1CC(C)C [compound 196]	0* %	0* %	0* %	0* %	0* %	0* %	0* %	44* %	0* %	0* %	0* %	–	–	–	–	–	–	–	–	–	–
CCc1ccccc1-c1c(Cl)nc(-n2cccn2)c(=O)n1CC(C)C [compound 197]	0* %	0* %	0* %	23* %	0* %	0* %	0* %	0* %	41* %	16* %	0* %	–	–	–	–	–	–	–	–	–	–
CC[C@H](C)Cn1c(-c2ccc(F)cc2Cl)c(Cl)nc(-n2ccc(C)n2)c1=O [compound 262]	–	–	–	–	–	–	–	–	–	–	–	17* %	99* %	100* %	100* %	39* %	100* %	0* %	0* %	100* %	Test G disease control rating (Rhizoctonia oryzae; [4]): 76* %; Test H disease control rating (Septoria nodorum; [4]): 100* %
CC[C@H](C)Cn1c(-c2ccc(F)cc2Cl)c(Cl)nc(-n2cccn2)c1=O [compound 263]	–	–	–	–	–	–	–	–	–	–	–	0* %	98* %	100* %	100* %	68* %	100* %	0* %	0* %	100* %	Test G disease control rating (Rhizoctonia oryzae; [4]): 84* %; Test H disease control rating (Septoria nodorum; [4]): 100* %
CC[C@H](C)Cn1c(-c2ccc(F)cc2Cl)c(Cl)nc(N2CCC=N2)c1=O [compound 264]	–	–	–	–	–	–	–	–	–	–	–	0* %	83* %	91* %	100* %	80* %	81* %	0* %	0* %	99* %	Test G disease control rating (Rhizoctonia oryzae; [4]): 0* %; Test H disease control rating (Septoria nodorum; [4]): 0* %
CCCCn1c(-c2ccc(F)cc2Cl)c(Br)nc(N2CCC=N2)c1=O [compound 286]	–	–	–	–	–	–	–	–	–	–	–	0* %	0* %	0* %	37* %	41* %	0* %	0* %	0* %	97* %	Test G disease control rating (Rhizoctonia oryzae; [4]): 0* %; Test H disease control rating (Septoria nodorum; [4]): 0* %
O=c1c(-n2cccn2)nc(Cl)c(-c2c(F)cc(F)cc2F)n1-c1ccccc1 [compound 287]	–	–	–	–	–	–	–	–	–	–	–	47* %	99* %	99* %	100* %	46* %	99* %	56* %	97* %	100* %	Test G disease control rating (Rhizoctonia oryzae; [4]): 93* %; Test H disease control rating (Septoria nodorum; [4]): 99* %
CCC(C)Cn1c(-c2c(F)cccc2F)c(Cl)nc(C(=O)NC)c1=O (stereo not shown) [compound 297]	–	–	–	–	–	–	–	–	–	–	–	–	–	–	–	–	–	–	–	–	Test D disease control rating (Plasmopara viticola; [5]): 88%; Test L disease control rating [1, 5]: 97%; Test K disease control rating [2, 5]: 98%; Test J disease control rating (Septoria tritici; [5]): 99%; Test F disease control rating (Phytophthora infestans; [5]): 92%; Test B disease control rating [3, 5]: 73%; Test A disease control rating (Pythium aphanidermatum; [5]): 0%; Test I disease control rating (fusarium graminearium; [5]): 75%; Test E disease control rating (Botrytis cinerea; [5]): 99%; Test G disease control rating (Rhizoctonia oryzae; [5]): 78%; Test H disease control rating (Septoria nodorum; [5]): 100%
